Assay results: patent US20140148443A1, “Novel Imidazolines as dual inhibitors of MDM2 and MDMX” (priority 2012, published 2014)
Where a name gives a salt, the structure may show the parent alone.

Legend:
[1] = biological target: recombinant GST-tagged MDM2 (Homo sapiens, UniProt Q00987); experiment: HTRF assay of interaction between p53 peptide and GST-tagged MDM2; conditions: inhibition of GST-MDM2 (160 ng/ml) binding to biotinylated p53-peptide
Description: The ability of a test compound to inhibit the interaction between p53 and MDM2 protein was measured by an HTRF (homogeneous time-resolved fluorescence) assay in which recombinant GST-tagged MDM2 binds to a peptide that resembles the MDM2-interacting region of p53 Aca-[…]-OH hereinafter p53-peptide). Binding of GST-MDM2 protein and p53-peptide (biotinylated on its N-terminal end) is registered by the FRET (fluorescence resonance energy transfer) between Europium (Eu)-labeled anti-GST antibody and streptavidin-conjugated Allophycocyanin (APC).
The test was performed in black flat-bottom 384-well plates (Costar) in a total volume of 40 uL containing: 90 nM biotinylated peptide, 160 ng/ml GST-MDM2, 20 nM streptavidin-APC (PerkinElmerWallac), 2 nM Eu-labeled anti-GST-antibody (PerkinElmerWallac), 0.02% bovine serum albumin (BSA), 1 mM dithiothreitol (DTT) and 20 mM […] (TBS) buffer as follows: add 10 uL of GST-MDM2 (640 ng/ml working solution) in reaction buffer to each well. Add 10 uL diluted compounds (1:5 dilution in reaction buffer) to each well, mix by shaking. Add 20 uL biotinylated p53 peptide (180 nM working solution) in reaction buffer to each well and mix on shaker. Incubate at 37° C. for 1 h. Add […] streptavidin-APC and Eu-anti-GST antibody mixture (6 nM Eu-anti-GST and 60 nM streptavidin-APC working solution) in TBS buffer with 0.02% BSA, shake at room temperature for 30 minutes and read using a TRF-capable plate reader at 665 and 615 nm (Victor 5, Perkin ElmerWallac). If not specified, the reagents were purchased from Sigma Chemical Co.

[2] = biological target: T1, GST-tagged MDMX (Homo sapiens, UniProt O15151); experiment: HTRF binding assay of GST-tagged MDMX to p53 peptide
T1 sequence (O15151 1-490): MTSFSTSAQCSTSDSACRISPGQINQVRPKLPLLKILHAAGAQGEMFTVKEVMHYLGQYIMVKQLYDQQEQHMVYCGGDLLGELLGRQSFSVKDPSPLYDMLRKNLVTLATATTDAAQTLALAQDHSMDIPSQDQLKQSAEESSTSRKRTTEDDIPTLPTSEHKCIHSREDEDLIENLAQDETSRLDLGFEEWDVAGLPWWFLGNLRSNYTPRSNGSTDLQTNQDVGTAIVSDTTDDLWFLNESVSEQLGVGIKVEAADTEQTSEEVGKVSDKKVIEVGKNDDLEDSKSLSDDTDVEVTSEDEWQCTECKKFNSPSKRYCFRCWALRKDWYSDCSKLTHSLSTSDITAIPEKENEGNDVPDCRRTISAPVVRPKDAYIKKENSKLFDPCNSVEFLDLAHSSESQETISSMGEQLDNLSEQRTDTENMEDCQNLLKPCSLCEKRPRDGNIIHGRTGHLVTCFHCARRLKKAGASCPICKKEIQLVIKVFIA

Chain of recombinant GST-tagged MDM2 (Q00987 whole entry): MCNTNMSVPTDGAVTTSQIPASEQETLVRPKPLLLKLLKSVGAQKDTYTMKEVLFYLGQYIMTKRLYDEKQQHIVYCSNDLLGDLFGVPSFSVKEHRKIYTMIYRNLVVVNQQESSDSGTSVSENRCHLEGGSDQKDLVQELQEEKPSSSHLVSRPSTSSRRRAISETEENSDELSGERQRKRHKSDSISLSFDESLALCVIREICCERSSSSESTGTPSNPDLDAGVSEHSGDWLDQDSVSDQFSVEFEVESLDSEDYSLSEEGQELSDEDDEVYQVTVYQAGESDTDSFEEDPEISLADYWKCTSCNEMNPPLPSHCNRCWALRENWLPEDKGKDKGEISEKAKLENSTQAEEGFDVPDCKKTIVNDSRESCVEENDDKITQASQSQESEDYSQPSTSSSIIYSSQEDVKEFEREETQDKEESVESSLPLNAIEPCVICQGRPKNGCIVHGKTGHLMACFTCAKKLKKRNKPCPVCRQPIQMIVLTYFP

Row | SMILES | IC50 [1] [nM] | IC50 [2] [nM]
1 | CCOc1cc(Cl)c(S(C)(=O)=O)cc1C1=N[C@@](C)(c2ccc(Cl)cc2)[C@@](C)(c2ccc(Cl)cc2)N1C(=O)N1CCC(NC(N)=O)CC1 [Example 32, {1-[(4S,5R)-2-(4-Chloro-2-ethoxy-5-methanesulfonyl-phenyl)-4,5-bis-(4-chloro-phenyl)-4,5-dimethyl-4,5-dihydro-imidazole-1-carbonyl]-piperidin-4-yl}-urea] | 5.2 | 1460
2 | CCOc1cc(Cl)c(S(C)(=O)=O)cc1C1=N[C@@](C)(c2ccc(Cl)cc2)[C@@](C)(c2ccc(Cl)cc2)N1C(=O)N1CCC(NS(C)(=O)=O)CC1 [Example 33, N-{1-[(4S,5R)-2-(4-Chloro-2-ethoxy-5-methanesulfonyl-phenyl)-4,5-bis-(4-chloro-phenyl)-4,5-dimethyl-4,5-dihydro-imidazole-1-carbonyl]-piperidin-4-yl}-methanesulfonamide] | 5.3 | 1120
3 | CCOc1cc(Cl)c(S(C)(=O)=O)cc1C1=N[C@@](C)(c2ccc(Cl)cc2)[C@@](C)(c2ccc(Cl)cc2)N1C(=O)N1CCC(NC(=O)NC2CCS(=O)(=O)C2)CC1 (stereo partly drawn) [Example 34, 1-{1-[(4S,5R)-2-(4-Chloro-2-ethoxy-5-methanesulfonyl-phenyl)-4,5-bis-(4-chloro-phenyl)-4,5-dimethyl-4,5-dihydro-imidazole-1-carbonyl]-piperidin-4-yl}-3-(1,1-dioxo-tetrahydro-1λ6-thiophen-3-yl)-urea] | 6.3 | 1350
4 | CCOc1cc(Cl)c(S(C)(=O)=O)cc1C1=N[C@@](C)(c2ccc(Cl)cc2)[C@@](C)(c2ccc(Cl)cc2)N1C(=O)N1CCN(CC(=O)O)CC1 [Example 35, {4-[(4S,5R)-2-(4-Chloro-2-ethoxy-5-methanesulfonyl-phenyl)-4,5-bis-(4-chloro-phenyl)-4,5-dimethyl-4,5-dihydro-imidazole-1-carbonyl]-piperazin-1-yl}-acetic acid, hydrochloride] | 6.7 | 2860
5 | CCOc1cc(Cl)c(S(C)(=O)=O)cc1C1=N[C@@](C)(c2ccc(Cl)cc2)[C@@](C)(c2ccc(Cl)cc2)N1C(=O)N1CCC(NC(C)=O)CC1 [Example 36, N-{1-[(4S,5R)-2-(4-Chloro-2-ethoxy-5-methanesulfonyl-phenyl)-4,5-bis-(4-chloro-phenyl)-4,5-dimethyl-4,5-dihydro-imidazole-1-carbonyl]-piperidin-4-yl}-acetamide] | 4.8 | 1270
6 | CCOc1cc(Cl)c(S(C)(=O)=O)cc1C1=N[C@@](C)(c2ccc(Cl)cc2)[C@@](C)(c2ccc(Cl)cc2)N1C(=O)N1CCC(N(C)CCCN(C)C)C1 (stereo partly drawn) [Example 37, [(4S,5R)-2-(4-Chloro-2-ethoxy-5-methanesulfonyl-phenyl)-4,5-bis-(4-chloro-phenyl)-4,5-dimethyl-4,5-dihydro-imidazol-1-yl]-{3-[(3-dimethylamino-propyl)-methyl-amino]-pyrrolidin-1-yl}-methanone] | 6.1 | 3910
7 | CCOc1cc(Cl)c(S(C)(=O)=O)cc1C1=N[C@@](C)(c2ccc(Cl)cc2)[C@@](C)(c2ccc(Cl)cc2)N1C(=O)N1CCC(O)CC1 [Example 38, [(4S,5R)-2-(4-Chloro-2-ethoxy-5-methanesulfonyl-phenyl)-4,5-bis-(4-chloro-phenyl)-4,5-dimethyl-4,5-dihydro-imidazol-1-yl]-(4-hydroxy-piperidin-1-yl)-methanone] | 8.4 | 2890
8 | CCOc1cc(Cl)c(S(C)(=O)=O)cc1C1=N[C@@](C)(c2ccc(Cl)cc2)[C@@](C)(c2ccc(Cl)cc2)N1C(=O)N1CCC(CC(N)=O)CC1 [Example 39, 2-{1-[(4S,5R)-2-(4-Chloro-2-ethoxy-5-methanesulfonyl-phenyl)-4,5-bis-(4-chloro-phenyl)-4,5-dimethyl-4,5-dihydro-imidazole-1-carbonyl]-piperidin-4-yl}-acetamide] | 6.1 | 1030
9 | CC(C)Oc1cc(Cl)c(S(C)(=O)=O)cc1C1=N[C@@](C)(c2ccc(Cl)cc2)[C@@](C)(c2ccc(Cl)cc2)N1C(=O)N1CCN(CCCS(C)(=O)=O)CC1 [Example 40, [(4S,5R)-2-(4-Chloro-2-isopropoxy-5-methanesulfonyl-phenyl)-4,5-bis-(4-chloro-phenyl)-4,5-dimethyl-4,5-dihydro-imidazol-1-yl]-[4-(3-methanesulfonyl-propyl)-piperazin-1-yl]-methanone] | 6.1 | 290
10 | CC(C)Oc1cc(Cl)c(S(C)(=O)=O)cc1C1=N[C@@](C)(c2ccc(Cl)cc2)[C@@](C)(c2ccc(Cl)cc2)N1C(=O)N1CCC(CC(N)=O)CC1 [Example 41, 2-{1-[(4S,5R)-2-(4-Chloro-2-isopropoxy-5-methanesulfonyl-phenyl)-4,5-bis-(4-chloro-phenyl)-4,5-dimethyl-4,5-dihydro-imidazole-1-carbonyl]-piperidin-4-yl}-acetamide] | 6.9 | 170
11 | C[C@@]1(c2ccc(Cl)cc2)N=C(c2cc(S(C)(=O)=O)c(Cl)cc2OCC2CC2)N(C(=O)N2CCN(CCCS(C)(=O)=O)CC2)[C@]1(C)c1ccc(Cl)cc1 [Example 42, [(4S,5R)-2-(4-Chloro-2-cyclopropylmethoxy-5-methanesulfonyl-phenyl)-4,5-bis-(4-chloro-phenyl)-4,5-dimethyl-4,5-dihydro-imidazol-1-yl]-[4-(3-methanesulfonyl-propyl)-piperazin-1-yl]-methanone] | 12.5 | 6630
12 | C[C@@]1(c2ccc(Cl)cc2)N=C(c2cc(S(C)(=O)=O)c(Cl)cc2OCCF)N(C(=O)N2CCN(CCCS(C)(=O)=O)CC2)[C@]1(C)c1ccc(Cl)cc1 [Example 43, [(4S,5R)-2-[4-Chloro-2-(2-fluoro-ethoxy)-5-methanesulfonyl-phenyl]-4,5-bis-(4-chloro-phenyl)-4,5-dimethyl-4,5-dihydro-imidazol-1-yl]-[4-(3-methanesulfonyl-propyl)-piperazin-1-yl]-methanone] | 9.7 | 1380
13 | CCC(C)Oc1cc(Cl)c(S(C)(=O)=O)cc1C1=N[C@@](C)(c2ccc(Cl)cc2)[C@@](C)(c2ccc(Cl)cc2)N1C(=O)N1CCN(CCCS(C)(=O)=O)CC1 (stereo partly drawn) [Example 44, [(4S,5R)-2-(2-sec-Butoxy-4-chloro-5-methanesulfonyl-phenyl)-4,5-bis-(4-chloro-phenyl)-4,5-dimethyl-4,5-dihydro-imidazol-1-yl]-[4-(3-methanesulfonyl-propyl)-piperazin-1-yl]-methanone] | 13.9 | 1530
14 | CCOc1cc(Cl)c(S(=O)(=O)NC(C)(C)C)cc1C1=N[C@@](C)(c2ccc(Cl)cc2)[C@@](C)(c2ccc(Cl)cc2)N1C(=O)N1CCN(CCC(O)CO)CC1 (stereo partly drawn) [Example 45, 5-{(4S,5R)-4,5-Bis-(4-chloro-phenyl)-1-[4-(3,4-dihydroxy-butyl)-piperazine-1-carbonyl]-4,5-dimethyl-4,5-dihydro-1H-imidazol-2-yl}-N-tert-butyl-2-chloro-4-ethoxy-benzene sulfonamide] | 12.9 | 1130
15 | CCOc1cc(Cl)c(S(=O)(=O)NC(C)(C)C)cc1C1=N[C@@](C)(c2ccc(Cl)cc2)[C@@](C)(c2ccc(Cl)cc2)N1C(=O)N1CCN(CCOCCO)CC1 [Example 46, 5-((4S,5R)-4,5-Bis-(4-chloro-phenyl)-1-{4-[2-(2-hydroxy-ethoxy)-ethyl]-piperazine-1-carbonyl}-4,5-dimethyl-4,5-dihydro-1H-imidazol-2-yl)-N-tert-butyl-2-chloro-4-ethoxy-benzenesulfonamide] | 12.2 | 1810
16 | CCOc1cc(Cl)c(S(=O)(=O)NC(C)(C)C)cc1C1=N[C@@](C)(c2ccc(Cl)cc2)[C@@](C)(c2ccc(Cl)cc2)N1C(=O)N1CCN(CC(=O)N2CCN(C)CC2)CC1 [Example 47, 5-((4S,5R)-4,5-Bis-(4-chloro-phenyl)-4,5-dimethyl-1-{4-[2-(4-methyl-piperazin-1-yl)-2-oxo-ethyl]-piperazine-1-carbonyl}-4,5-dihydro-1H-imidazol-2-yl)-N-tert-butyl-2-chloro-4-ethoxy-benzenesulfonamide] | 6.6 | 1080
